Assay results from patent publication US10039770B2, “Prostaglandin F2Alpha and analogues thereof for treating atrophic cutaneous scarring” (Galderma S.A., priority 2013, dated 2018).

What was measured:
atrophic cutaneous scar = test: Topical treatment of an atrophic cutaneous scar in a human (case example); assay type: in vivo; settings: aqueous solution 0.004% topical once daily
Procedure: FIG. 1 A. depicts a 6 month old atrophic cutaneous scar secondary to dermatologic surgery present on the abdomen of a person prior to treatment. During the 3 to 4 months prior to starting topical treatment with PGF 2α analog, the scar had not qualitatively changed in structure or appearance. […] The scar was then treated with an aqueous solution of topical travoprost 0.004% which was digitally massaged onto the scar surface once daily for several weeks. FIGS. 1B through J depict the appearance of the same scar at one week intervals during the treatment period.

synovial fibroblast = settings: in culture; cited from earlier work
skin (Sc)fibroblasts = settings: exogenous administration; mice with a mutated form of α2AP; cited from earlier work

Compound | Langer lines across the previously scarred skin (atrophic cutaneous scar; at 8 weeks) | surrounding skin: keloid formation, atrophy or pigmentation (atrophic cutaneous scar; at all time points) | other adverse reactions (atrophic cutaneous scar; during or after the treatment interval) | erythema of the scar (atrophic cutaneous scar; over 9 weeks of treatment) | transition of the border between the scar tissue and normal surrounding skin (atrophic cutaneous scar; over 9 weeks of treatment) | fibrosis and thickening of the atrophic areas of the scar (atrophic cutaneous scar; person, abdominal scar, over 9 weeks of treatment) | synovial fibroblast collagen production, cell proliferation and cell migration (synovial fibroblast) | bleomycin-induced collagen production / fibrosis in mutant (Sc)fibroblast strain (skin (Sc)fibroblasts)
CC(C)OC(=O)CCC/C=C\C[C@@H]1[C@@H](/C=C/[C@@H](O)COc2cccc(C(F)(F)F)c2)[C@H](O)C[C@@H]1O [travoprost] | normal appearing Langer lines are apparent | no evidence of keloid formation, atrophy or pigmentation | No other adverse reactions were noted | decrease in erythema | visibly smoother transition of the border between the scar tissue and normal surrounding skin | gradual increase in fibrosis and thickening of the atrophic areas of the scar | – | –
Prostaglandin F 2α [PGF 2α] | – | – | – | – | – | – | stimulated | reversed the attenuation and this resulted in dermal thickening and fibrosis
transforming growth factor β | – | – | – | – | – | – | not | –
